Legend:
[1] = Plasma pharmacokinetics in mice after oral administration; type: in vivo; conditions: mouse, male C57/Bl6 mice, oral 10 mg/kg; for AUC: sampling 15 min to 7 h, log-linear trapezoidal method, read-out: AUCplasma; for Cmax: suspension in 1% methylcellulose/0.1% Poloxamer 188
Method in brief: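 Male C57/B16 mice (25-30 g, fed, 9 per dose) received 10 mg/kg by oral gavage as a suspension in 1% methylcellulose 400 cps/0.1% Poloxamer 188/water. Plasma was sampled at 15 min, 30 min, 1 h, 3 h and 7 h and quantified by LC-MS/MS after protein precipitation. Parameters were derived non-compartmentally, with AUC by the log-linear trapezoidal method.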

[2] = Brain penetration in rats after intravenous administration; type: in vivo; conditions: rat; for Kp at 4 h: male, Wistar, intravenous, 4 mg/kg, ratio of Cmax brain to Cmax plasma after the 4 hours of infusion, rats, read-out: Kp (partition coefficient between the brain and the plasma); for Cmax at 4 h: male Wistar rats, 4 mg/kg iv infusion into the jugular vein for 4 hours, plasma at end of infusion
Method in brief: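 Male Wistar rats (250-300 g, fed, n=4) received test compound by 4-hour jugular vein infusion at 4 mg/kg in 2% Cremophor EL/0.9% NaCl. At the end of infusion, plasma and brain homogenate were analysed by LC-MS/MS; Kp is the brain-to-plasma concentration ratio after 4 hours.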

[3] = test system: dopaminergic neurons of primary culture of rat embryo mesencephalon treated with MPP+; assay: Neuroprotection in primary culture of rat embryo mesencephalon treated with MPP+ (count of tyrosine hydroxylase expressing cells); type: cell-based; conditions: recombinant human BDNF 10 ng/mL = 100%, 2 days with MPP+
Method in brief: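 Rat embryo (E15) mesencephalon cultures, 5 days, then MPP+ with or without compound on day 6 for 2 days. Tyrosine hydroxylase-immunolabelled cells counted by image analysis; activity expressed as percent of recombinant human BDNF (10 ng/mL) reference, set at 100%.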

NURR-1/RXRα = biological target: T1, NURR-1/RXRα (Homo sapiens, UniProt P19793); assay: Transactivation test, NURR-1-Gal4/RXRα, luciferase reporter in Cos-7 cells; type: cell-based; conditions: for Emax: COS-7, induction level relative to reference XCT0135908 at 2×10^−5 M (=100%), read-out: hNurr1_RXRaFL Emax (%); for EC50: Cos-7 cells, NURR-1-Gal4/RXRα, luciferase reporter, read-out: hNurr1_RXRaFL EC50
T1 construct: expressed in transfected cells; host or cells: Cos-7 cells
T1 sequence (P19793 whole entry, the tested form may be a part): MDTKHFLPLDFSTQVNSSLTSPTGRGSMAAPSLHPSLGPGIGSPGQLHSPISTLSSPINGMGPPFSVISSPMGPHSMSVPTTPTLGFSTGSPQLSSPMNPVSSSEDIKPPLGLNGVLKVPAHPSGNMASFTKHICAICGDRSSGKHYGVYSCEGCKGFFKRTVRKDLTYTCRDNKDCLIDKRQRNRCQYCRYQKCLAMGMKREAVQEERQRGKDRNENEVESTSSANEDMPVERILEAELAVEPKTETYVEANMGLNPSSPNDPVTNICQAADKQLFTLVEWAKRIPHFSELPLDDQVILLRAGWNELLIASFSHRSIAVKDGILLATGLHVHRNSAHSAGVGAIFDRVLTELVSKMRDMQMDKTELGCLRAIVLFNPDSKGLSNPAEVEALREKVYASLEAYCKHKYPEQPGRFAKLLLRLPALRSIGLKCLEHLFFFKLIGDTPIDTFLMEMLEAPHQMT
T1 sequence (P43354 whole entry partner, the tested form may be a part): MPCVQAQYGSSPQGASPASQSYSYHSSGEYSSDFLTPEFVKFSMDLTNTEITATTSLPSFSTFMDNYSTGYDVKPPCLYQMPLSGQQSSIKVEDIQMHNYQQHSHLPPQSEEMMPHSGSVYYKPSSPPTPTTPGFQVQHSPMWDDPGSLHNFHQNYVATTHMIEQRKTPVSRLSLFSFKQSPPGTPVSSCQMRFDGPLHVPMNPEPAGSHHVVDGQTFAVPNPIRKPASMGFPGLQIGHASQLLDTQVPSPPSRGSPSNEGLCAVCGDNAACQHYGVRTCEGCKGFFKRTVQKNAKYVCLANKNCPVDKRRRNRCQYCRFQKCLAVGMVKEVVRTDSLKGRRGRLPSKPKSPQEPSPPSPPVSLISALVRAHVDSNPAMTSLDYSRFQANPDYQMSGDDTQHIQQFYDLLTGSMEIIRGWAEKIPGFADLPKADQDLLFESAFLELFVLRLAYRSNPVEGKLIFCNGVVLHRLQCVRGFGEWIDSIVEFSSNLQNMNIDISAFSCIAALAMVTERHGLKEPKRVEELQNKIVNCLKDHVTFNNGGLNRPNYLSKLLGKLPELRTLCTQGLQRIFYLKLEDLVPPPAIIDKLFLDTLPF
T1 sequence (P04386 1-147 partner limits assumed): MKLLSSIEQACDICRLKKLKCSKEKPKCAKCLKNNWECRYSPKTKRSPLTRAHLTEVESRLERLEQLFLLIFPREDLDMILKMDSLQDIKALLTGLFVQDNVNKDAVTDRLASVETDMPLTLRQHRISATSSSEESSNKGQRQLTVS

SMILES: CC1(C)CCC(C)(C)c2cc(-c3cccc(N4CC(C(=O)O)C4)c3)ccc21 [Example 10, 1-[5-(1,1,4,4-tetrametyltetralin-6-yl)phenyl]azetidine-3-carboxylic acid]
- AUC [1]: 25700 ng·h/mL
- Cmax [1]: 8760 ng/mL
- Kp at 4 h [2]: 1.28
- Cmax at 4 h [2]: 4300 ng/mL
- percentage of activity relative to the BDNF reference ([3]; compound 1 μM): 44%
- percentage of activity relative to the BDNF reference ([3]; compound 10 μM): 74%
- Emax (NURR-1/RXRα): 84%
- EC50 (NURR-1/RXRα): 8 nM

SMILES: CC(C)CC1CN(c2cccc(N3CC(C(=O)O)C3)c2)c2ccc(C(F)(F)F)cc2O1 (stereo not shown) [Example 118, 1-[3-[2-isobutyl-7-(trilfuoromethyl)-2,3-dihydro-1,4-benzoxazin-4-yl]phenyl]azetidine-3-carboxylic acid]
- AUC [1]: 9820 ng·h/mL
- Cmax [1]: 4600 ng/mL
- Kp at 4 h [2]: 0.35
- Cmax at 4 h [2]: 3480 ng/mL
- percentage of activity relative to the BDNF reference ([3]; compound 1 μM): 81%
- percentage of activity relative to the BDNF reference ([3]; compound 10 μM): 61%
- Emax (NURR-1/RXRα): 83%
- EC50 (NURR-1/RXRα): 31 nM
